Like-named read-outs stand apart in the source and are kept apart here.
Assays:
5-LO = experiment: Lipoxygenase inhibitor screening assay, cell-free, 5-LO with linoleic acid as substrate; format: biochemical
Protocol: (§1) CLX-162C-C01 in concentrations ranging from 0.001 to 1.2 mM was added to 5-LO or 15-LO in the screening assay buffer, respectively, and the LO inhibitor screening assay was immediately started by addition of the corresponding substrates and running for 5 min. The inhibitory capacity of CLX-162C-C01 against lipoxygenases was studied in a cell-free system consisting of CLX-162C-C01 and 5-LO or 15-LO together with appropriate substrates, respectively.

human 5-HT2B receptors = human 5-HT2B receptors (Homo sapiens, UniProt P41595); experiment: 5-HT2B agonist assay, intracellular calcium (Fluo-3, FLIPR) in HEK-293 cells; format: cell-based; conditions: HEK-293 cells expressing human 5-HT2B
Sequence of human 5-HT2B receptors (P41595 whole entry): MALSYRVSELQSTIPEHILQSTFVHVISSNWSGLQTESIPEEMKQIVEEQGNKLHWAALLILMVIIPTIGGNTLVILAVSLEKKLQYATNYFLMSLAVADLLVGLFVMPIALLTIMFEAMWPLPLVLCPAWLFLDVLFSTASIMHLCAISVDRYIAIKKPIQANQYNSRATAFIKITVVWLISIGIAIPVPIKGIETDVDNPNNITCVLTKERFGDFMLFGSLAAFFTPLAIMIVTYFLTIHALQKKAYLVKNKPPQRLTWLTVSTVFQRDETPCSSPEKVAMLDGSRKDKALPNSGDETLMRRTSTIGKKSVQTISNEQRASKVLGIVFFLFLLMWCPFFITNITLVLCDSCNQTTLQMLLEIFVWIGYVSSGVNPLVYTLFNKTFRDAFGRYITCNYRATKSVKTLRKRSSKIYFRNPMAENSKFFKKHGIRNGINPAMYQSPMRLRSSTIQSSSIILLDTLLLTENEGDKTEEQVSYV
Protocol: 5-HT2B receptors stably expressing HEK-293 cells were maintained in Dulbecco's modified Eagle's medium (DMEM) supplemented with 10% fetal bovine serum and 250 microgm·mL-1 G-418. HEK-293 cells expressing human 5-HT2B receptors were seeded in […] poly-D-lysine coated plates at a density of 50,000 cells·well-1 in DMEM containing 10% (v.v-1) dialyzed fetal bovine serum and 250 microgm·mL-1 G-418. After overnight incubation, the cells were washed three times with Hank's buffered saline solution containing 2 mM CaCl2), 10 mM HEPES and 2.5 mM probenecid. The cells were incubated with 2 microM Fluo-3 AM in Hank's buffered saline solution for 60 min at 37 C. The Fluo-3 loaded cells were then washed four times with Hank's buffered saline solution. Agonist-induced changes in intracellular calcium concentrations were determined at room temperature using a Fluorometric Imaging Plate Reader.

[1] = Oxidative capacity of UCP (oxidation of methionine to methionine sulfoxide), cell-free; conditions: 0.1 to 10 mM, preincubation 60 min, methionine sulfoxide formation
Protocol: The influence of CLX-162C-C01 on the oxidative capacity of UCP was studied by preincubating UCP (2 mg/ml H2O) with various concentrations of CLX-162C-C01 (0.1, 1, and 10 mM) for 60 min at room temperature in parallel with the controls. To assay the oxidative capacity of UCP, aliquots of 50 microlit (100 microgm UCP) of particle suspension taken from the preincubations were suspended in 1 ml H2O and incubated in the presence of 100 microM methionine for 2 h at 25° C. Formation of methionine sulfoxide was measured fluorometrically after precolumn derivatization with o-phthaldialdehyde and HPLC. […] The oxidative potential of the particles was subsequently determined by their capacity to oxidize […] sulfoxide. […] CLX-162C-C01 antioxidative potency to prevent the oxidation of methionine by agglomerates of ultrafine carbon particles (UCPs). Particulate stimulants such as UCP and zymosan activate lipid mediator synthesis and to induce oxidative stress in macrophages.

15-LO = experiment: Lipoxygenase inhibitor screening assay, cell-free, 15-LO with arachidonic acid as substrate; format: biochemical; conditions: concentrations from 0.32 to 0.93 mM
Protocol: as §1

For `Cc1cc(C(C)(C)C)c(O)c(C)c1CC1=NCCN1` [CLX-162C-C01, 2-(4-(tert-butyl)-3-hydroxy-2,6-dimethylbenzyl)-4,5-dihydro-1Himidazol-1-ium (R)-5-(1,2-dithiolan-3-yl) pentanoate], the “inhibition of the activity of 5-LO” value (5-LO; concentrations from 0.32 to 0.93 mM) was “strongly inhibited”, the IC50 (5-LO; linoleic acid substrate, 5 min, read-out: 50% inhibition of 5-LO) was 320000 nM and the EC50 (human 5-HT2B receptors; read-out: EC50, 5-HT2B agonist effect) was 14.2 nM. The EC50 (human 5-HT2B receptors; read-out: pEC50 (-log EC50), 5-HT2B agonist effect (converted)) was 490 nM, the “effect on oxidative capacity of UCP” value [1] was “did not reduce” and the “inhibition of the activity of 15-LO” value (15-LO) was “only marginally affected”.
